# Molecular target: Nav 1.7 (Homo sapiens (Human), UniProt Q15858)
# Assay: in-vitro Nav 1.7 PX (IC50)
# Format: cell-based
# Details: not given
# Chain of Nav 1.7 (Q15858 whole entry): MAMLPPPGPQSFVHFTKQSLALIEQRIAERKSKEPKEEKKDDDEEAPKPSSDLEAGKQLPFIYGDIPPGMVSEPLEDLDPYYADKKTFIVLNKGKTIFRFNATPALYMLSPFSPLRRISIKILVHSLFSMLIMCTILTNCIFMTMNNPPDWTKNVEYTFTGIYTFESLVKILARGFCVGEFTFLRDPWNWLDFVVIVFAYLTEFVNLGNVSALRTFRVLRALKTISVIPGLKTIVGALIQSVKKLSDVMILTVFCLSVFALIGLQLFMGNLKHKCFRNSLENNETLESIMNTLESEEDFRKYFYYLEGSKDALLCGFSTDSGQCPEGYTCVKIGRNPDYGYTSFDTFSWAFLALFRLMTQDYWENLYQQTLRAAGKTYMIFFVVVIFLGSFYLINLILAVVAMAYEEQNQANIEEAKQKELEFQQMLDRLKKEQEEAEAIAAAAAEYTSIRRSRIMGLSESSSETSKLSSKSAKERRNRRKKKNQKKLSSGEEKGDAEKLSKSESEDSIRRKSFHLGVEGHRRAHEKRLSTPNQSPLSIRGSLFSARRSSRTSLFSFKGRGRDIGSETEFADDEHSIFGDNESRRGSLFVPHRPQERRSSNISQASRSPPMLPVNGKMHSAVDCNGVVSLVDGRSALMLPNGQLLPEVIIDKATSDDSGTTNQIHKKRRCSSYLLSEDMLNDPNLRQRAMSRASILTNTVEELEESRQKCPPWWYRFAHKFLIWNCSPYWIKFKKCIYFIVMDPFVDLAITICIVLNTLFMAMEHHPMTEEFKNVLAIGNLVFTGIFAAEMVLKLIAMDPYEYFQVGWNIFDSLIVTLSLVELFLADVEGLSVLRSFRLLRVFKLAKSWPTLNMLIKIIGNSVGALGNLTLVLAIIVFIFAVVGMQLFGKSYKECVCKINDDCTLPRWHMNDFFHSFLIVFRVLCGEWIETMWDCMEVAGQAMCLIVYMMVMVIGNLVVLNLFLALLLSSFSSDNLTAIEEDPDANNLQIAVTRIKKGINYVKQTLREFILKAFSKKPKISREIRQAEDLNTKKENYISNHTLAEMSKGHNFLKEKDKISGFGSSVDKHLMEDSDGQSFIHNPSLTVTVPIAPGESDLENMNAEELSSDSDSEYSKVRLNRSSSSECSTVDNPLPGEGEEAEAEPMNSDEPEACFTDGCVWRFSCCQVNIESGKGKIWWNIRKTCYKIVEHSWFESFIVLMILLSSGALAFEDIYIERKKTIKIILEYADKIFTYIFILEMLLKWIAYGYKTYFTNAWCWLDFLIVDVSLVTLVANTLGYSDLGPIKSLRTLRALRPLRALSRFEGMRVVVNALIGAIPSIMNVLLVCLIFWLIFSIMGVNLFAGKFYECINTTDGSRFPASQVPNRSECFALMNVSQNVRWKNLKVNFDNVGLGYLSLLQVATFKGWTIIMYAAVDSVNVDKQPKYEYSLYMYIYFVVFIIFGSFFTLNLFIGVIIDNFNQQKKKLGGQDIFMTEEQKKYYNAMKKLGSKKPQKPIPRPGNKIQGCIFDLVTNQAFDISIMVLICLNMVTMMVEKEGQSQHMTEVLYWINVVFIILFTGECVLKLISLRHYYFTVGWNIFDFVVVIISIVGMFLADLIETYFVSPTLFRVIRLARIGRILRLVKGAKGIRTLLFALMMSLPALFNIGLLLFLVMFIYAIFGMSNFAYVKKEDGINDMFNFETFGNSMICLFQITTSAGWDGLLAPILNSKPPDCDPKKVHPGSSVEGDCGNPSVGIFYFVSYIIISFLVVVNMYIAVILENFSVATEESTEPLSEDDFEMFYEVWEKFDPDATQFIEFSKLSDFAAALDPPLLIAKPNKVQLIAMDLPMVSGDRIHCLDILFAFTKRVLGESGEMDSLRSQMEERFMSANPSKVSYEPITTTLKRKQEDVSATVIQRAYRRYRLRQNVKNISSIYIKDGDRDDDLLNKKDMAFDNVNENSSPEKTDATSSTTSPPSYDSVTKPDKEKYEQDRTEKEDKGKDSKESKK
row,SMILES,IC50 [nM]
1,"COc1cc(C#CC2(O)CCCC2)c(F)cc1-n1c(=O)ccc2cc(S(=O)(=O)Nc3ccon3)ccc21 (atropisomer, axis not shown; (P)) [Example 1233, (P)-1-(5-fluoro-4-((1-hydroxycyclopentyl)ethynyl)-2-methoxyphenyl)-N-3-isoxazolyl-2-oxo-1,2-dihydro-6-quinolinesulfonamide]",631
2,"COc1cc(-c2cc(F)cc(Cl)c2)c(F)cc1-n1c(=O)ccc2cc(S(=O)(=O)Nc3cccnn3)ccc21 (atropisomer, axis not shown; (P)) [Example 542, (P)-1-(3′-chloro-2,5′-difluoro-5-methoxy-4-biphenylyl)-2-oxo-N-3-pyridazinyl-1,2-dihydro-6-quinolinesulfonamide]",7
3,"COc1nc(OCc2ccc(F)cc2)c(Cl)cc1-n1c(=O)ccc2cc(S(=O)(=O)Nc3ccon3)ccc21 [Example 1214, 1-(5-chloro-6-((4-fluorobenzyl)oxy)-2-methoxy-3-pyridinyl)-N-3-isoxazolyl-2-oxo-1,2-dihydro-6-quinolinesulfonamide]",111
4,"COc1cc(Br)c(F)cc1-n1c(=O)ccc2cc(S(=O)(=O)Nc3cc(OCC(C)C)ncn3)ccc21 (atropisomer, axis not shown; (P)) [Example 1187, (P)-1-(4-bromo-5-fluoro-2-methoxyphenyl)-N-(6-(2-methylpropoxy)-4-pyrimidinyl)-2-oxo-1,2-dihydro-6-quinolinesulfonamide]",1660
5,"COc1cc(-c2ccc(Cl)c(C)c2)ccc1-n1c(=O)cnc2cc(S(=O)(=O)Nc3ncccn3)ccc21 [Example 1199, 1-(4′-chloro-3-methoxy-3′-methyl-4-biphenylyl)-2-oxo-N-2-pyrimidinyl-1,2-dihydro-6-quinoxalinesulfonamide]",127

# Same assay, conditions: in-vitro Nav 1.7 PX data
row,SMILES,IC50 [nM]
1,"COc1cc(-c2ccccc2Cl)c(F)cc1-n1c(=O)ccc2cc(S(=O)(=O)Nc3ccon3)ccc21 [Example 952, 1-(2′-chloro-2-fluoro-5-methoxy-4-biphenylyl)-N-3-isoxazolyl-2-oxo-1,2-dihydro-6-quinolinesulfonamide]",62
2,"COc1cc(-c2cccc(OC(F)(F)F)c2)c(F)cc1-n1c(=O)ccc2cc(S(=O)(=O)Nc3ccon3)ccc21 [Example 728, 1-(2-fluoro-5-methoxy-3′-(trifluoromethoxy)-4-biphenylyl)-N-3-isoxazolyl-2-oxo-1,2-dihydro-6-quinolinesulfonamide]",8
3,"COc1cc(C#CC2CC2)c(F)cc1-n1c(=O)ccc2cc(S(=O)(=O)Nc3ccon3)ccc21 [Example 1130, 1-(4-(cyclopropylethynyl)-5-fluoro-2-methoxyphenyl)-N-3-isoxazolyl-2-oxo-1,2-dihydro-6-quinolinesulfonamide]",209
4,"CCOc1cccc(-c2cc(OC)c(-n3c(=O)ccc4cc(S(=O)(=O)Nc5ncccn5)ccc43)cc2C)c1 [Example 963, 1-(3′-ethoxy-5-methoxy-2-methyl-4-biphenylyl)-2-oxo-N-2-pyrimidinyl-1,2-dihydro-6-quinolinesulfonamide]",27
5,"COc1cc(-c2cccc(OC(C)C)c2)ccc1-n1c(=O)ccc2cc(S(=O)(=O)Nc3ncccn3)ccc21 [Example 828, 1-(3-methoxy-3′-(1-methylethoxy)-4-biphenylyl)-2-oxo-N-2-pyrimidinyl-1,2-dihydro-6-quinolinesulfonamide]",613
6,"COc1ccc(-c2cc(F)cc(Cl)c2)cc1-n1c(=O)ccc2cc(S(=O)(=O)Nc3ncco3)ccc21 [Example 864, 1-(3′-chloro-5′-fluoro-4-methoxy-3-biphenylyl)-N-1,3-oxazol-2-yl-2-oxo-1,2-dihydro-6-quinolinesulfonamide]",43
7,"COc1nc(-c2cccc(C#N)c2)c(Cl)cc1-n1c(=O)ccc2cc(S(=O)(=O)Nc3ccon3)ccc21 [Example 1091, 1-(5-chloro-6-(3-cyanophenyl)-2-methoxy-3-pyridinyl)-N-3-isoxazolyl-2-oxo-1,2-dihydro-6-quinolinesulfonamide]",20300
8,"COc1cc(C)cc(-c2ccc(-n3c(=O)ccc4cc(S(=O)(=O)Nc5ccon5)ccc43)c(OC)c2)c1 [Example 784, 1-(3,3′-dimethoxy-5′-methyl-4-biphenylyl)-N-3-isoxazolyl-2-oxo-1,2-dihydro-6-quinolinesulfonamide]",20
9,"COc1cc(-c2cccc(C(F)(F)F)c2)ccc1-n1c(=O)ccc2cc(S(=O)(=O)Nc3cc(C)ncn3)ccc21 [Example 946, 1-(3-methoxy-3′-(trifluoromethyl)-4-biphenylyl)-N-(6-methyl-4-pyrimidinyl)-2-oxo-1,2-dihydro-6-quinolinesulfonamide]",24
10,"COc1cc(-c2ccc(F)c(F)c2)c(C)cc1-n1c(=O)ccc2cc(S(=O)(=O)Nc3ncccn3)ccc21 [Example 958, 1-(3′,4′-difluoro-5-methoxy-2-methyl-4-biphenylyl)-2-oxo-N-2-pyrimidinyl-1,2-dihydro-6-quinolinesulfonamide]",28
11,"COc1cc(-c2cccc(Cl)c2OC)ccc1-n1c(=O)ccc2cc(S(=O)(=O)Nc3ccon3)ccc21 [Example 815, 1-(3′-chloro-2′,3-dimethoxy-4-biphenylyl)-N-3-isoxazolyl-2-oxo-1,2-dihydro-6-quinolinesulfonamide]",56
12,"COc1nc(-c2cccc(C)c2)c(Cl)cc1-n1c(=O)ccc2cc(S(=O)(=O)Nc3ccon3)ccc21 [Example 1088, 1-(5-chloro-2-methoxy-6-(3-methylphenyl)-3-pyridinyl)-N-3-isoxazolyl-2-oxo-1,2-dihydro-6-quinolinesulfonamide]",47
13,"COc1cc(-c2cc(Cl)ccc2C#N)c(F)cc1-n1c(=O)ccc2cc(S(=O)(=O)Nc3ccon3)ccc21 [Example 758, 1-(5′-chloro-2′-cyano-2-fluoro-5-methoxy-4-biphenylyl)-N-3-isoxazolyl-2-oxo-1,2-dihydro-6-quinolinesulfonamide]",20
14,"COc1cc(-c2cccc(C(F)(F)F)c2)ccc1-n1c(=O)ccc2cc(S(=O)(=O)Nc3ccc(C)nn3)ccc21 [Example 1138, 1-(3-methoxy-3′-(trifluoromethyl)-4-biphenylyl)-N-(6-methyl-3-pyridazinyl)-2-oxo-1,2-dihydro-6-quinolinesulfonamide]",146
15,"COc1cc(-c2cc(OC)c(-n3c(=O)ccc4cc(S(=O)(=O)Nc5ccon5)ccc43)cc2F)ccc1C#N [Example 720, 1-(4′-cyano-2-fluoro-3′,5-dimethoxy-4-biphenylyl)-N-3-isoxazolyl-2-oxo-1,2-dihydro-6-quinolinesulfonamide]",54
16,"COc1nc(-c2cc(F)cc(Cl)c2)c(Cl)cc1-n1c(=O)ccc2cc(S(=O)(=O)Nc3ccon3)ccc21 [Example 1071, 1-(5-chloro-6-(3-chloro-5-fluorophenyl)-2-methoxy-3-pyridinyl)-N-3-isoxazolyl-2-oxo-1,2-dihydro-6-quinolinesulfonamide]",348
17,"COc1cc(-c2cc(OC)c(-n3c(=O)ccc4cc(S(=O)(=O)Nc5ccon5)ccc43)cc2F)ccn1 [Example 739, 1-(5-fluoro-2-methoxy-4-(2-methoxy-4-pyridinyl)phenyl)-N-3-isoxazolyl-2-oxo-1,2-dihydro-6-quinolinesulfonamide]",224
18,"COc1cc(-c2cccc(C#N)c2)ccc1-n1c(=O)ccc2cc(S(=O)(=O)Nc3ccon3)ccc21 [Example 1019, 1-(3′-cyano-3-methoxy-4-biphenylyl)-N-3-isoxazolyl-2-oxo-1,2-dihydro-6-quinolinesulfonamide]",98
19,"COc1cc(C#CC(C)(C)O)c(F)cc1-n1c(=O)ccc2cc(S(=O)(=O)Nc3ccon3)ccc21 [Example 1139, 1-(5-fluoro-4-(3-hydroxy-3-methyl-1-butyn-1-yl)-2-methoxyphenyl)-N-3-isoxazolyl-2-oxo-1,2-dihydro-6-quinolinesulfonamide]",7380
20,"COc1cc(-c2ccc(F)c(F)c2)c(F)cc1-n1c(=O)ccc2cc(S(=O)(=O)Nc3ccnc(C)n3)ccc21 [Example 939, N-(2-methyl-4-pyrimidinyl)-2-oxo-1-(2,3′,4′-trifluoro-5-methoxy-4-biphenylyl)-1,2-dihydro-6-quinolinesulfonamide]",41
21,"COc1ccc(-c2cc(OC)c(-n3c(=O)ccc4cc(S(=O)(=O)Nc5ccon5)ccc43)cc2F)cc1 [Example 954, 1-(2-fluoro-4′,5-dimethoxy-4-biphenylyl)-N-3-isoxazolyl-2-oxo-1,2-dihydro-6-quinolinesulfonamide]",71
22,"COc1cccc(-c2ccc(OC)c(-n3c(=O)ccc4cc(S(=O)(=O)Nc5ccon5)ccc43)c2)c1 [Example 847, 1-(3′,4-dimethoxy-3-biphenylyl)-N-3-isoxazolyl-2-oxo-1,2-dihydro-6-quinolinesulfonamide]",403

# Same assay, conditions: in-vitro Nav 1.7 PX data (PatchXpress)
row,SMILES,IC50 [nM]
1,"COc1cc(-c2cccc(C)c2Cl)ccc1-n1c(=O)ccc2cc(S(=O)(=O)Nc3ccon3)ccc21 [Example 1059, 1-(2′-chloro-3-methoxy-3′-methyl-4-biphenylyl)-N-3-isoxazolyl-2-oxo-1,2-dihydro-6-quinolinesulfonamide]",32
2,"COc1cc(-c2cccc(Cl)c2F)ccc1-n1c(=O)ccc2cc(S(=O)(=O)Nc3ccon3)ccc21 [Example 1057, 1-(3′-chloro-2′-fluoro-3-methoxy-4-biphenylyl)-N-3-isoxazolyl-2-oxo-1,2-dihydro-6-quinolinesulfonamide]",11
3,"O=c1ccc2cc(S(=O)(=O)Nc3ccon3)ccc2n1-c1cc(F)c(Br)cc1OC1CCNC1 (centres unmarked) [Example 625, 1-(4-bromo-5-fluoro-2-(PYRROLIDIN-3-YLOXY)phenyl)-N-(isoxazol-3-yl)-2-oxo-1,2-dihydroquinoline-6-sulfonamide]",5610

# Same assay, conditions: in-vitro PatchXpress (PX)
row,SMILES,IC50 [nM]
1,"COc1cc(-c2ccc(C)c(Cl)c2)c(F)cc1-n1c(=O)ccc2cc(S(=O)(=O)Nc3ccon3)ccc21 (atropisomer, axis not shown; (P)) [Example 528, (P)-1-(3′-chloro-2-fluoro-5-methoxy-4′-methyl-4-biphenylyl)-N-3-isoxazolyl-2-oxo-1,2-dihydro-6-quinolinesulfonamide]",7
2,"COc1cc(-c2cnn(C)c2)c(F)cc1-n1c(=O)ccc2cc(S(=O)(=O)Nc3ccon3)ccc21 [Example 405, 1-(5-fluoro-2-methoxy-4-(1-methyl-1H-pyrazol-4-yl)phenyl)-N-3-isoxazolyl-2-oxo-1,2-dihydro-6-quinolinesulfonamide]",14600

# — US9212182B2, “Bicyclic sulfonamide compounds as sodium channel inhibitors” (AMGEN INC., priority 2013, dated 2015)
